Values of other authors as cited in patent US20140023692A1, “DRUG DELIVERY DEVICE” (priority 2010, published 2014).
In brackets after ≈: the same amount, converted by molar mass. Several values for one entry are separate records, joined by “and”; a condition that tells them apart may be missing. Equal values may be shown once. Read-outs that look alike come from different tables or passages of the source.

Tests used:
[1] = system: Staphylococcus epidermidis
[2] = topical application, rabbit
[3] = inflamed eyes (intravitreal Staphylococcus aureus, 24 h after inoculation)

In the case of `O=C(O)c1cn(C2CC2)c2cc(N3CCNCC3)c(F)cc2c1=O` [ciprofloxacin], the MIC90 (Enterobacter) is given as 0.206 µg/mL (≈ 0.622 µM), the MIC90 (Klebsiella) is given as 0.295 µg/mL (≈ 0.89 µM) and the MIC90 (Proteus) is given as 0.267 µg/mL (≈ 0.806 µM). The MIC90 (Pseudomonas) was 0.50 µg/mL and 0.626 µg/mL, the MIC90 (Haemophilus influenzae) was 0.014 µg/mL (≈ 0.0423 µM) and the MIC90 (Staphylococcus aureus) was 0.57 µg/mL and 0.796 µg/mL. The MIC90 [1] was 0.25 µg/mL and 0.375 µg/mL, the MIC90 (Streptococcus pyogenes) was 0.782 µg/mL (≈ 2.36 µM) and the MIC90 (Propionibacterium acnes) was 0.35 µg/mL (≈ 1.06 µM). The MIC90 (Bacillus cereus) was 0.25 µg/mL (≈ 0.754 µM), the MIC90 (Serratia) was 0.12 µg/mL (≈ 0.362 µM) and the “Mean aqueous concentration of ciprofloxacin” value [2, 3] was 3.65 µg/mL. The “Mean vitreous concentration of ciprofloxacin” value [2, 3] was 0.32 µg/mL, the “Mean aqueous concentration of ciprofloxacin” value ([2]; normal eyes) was 2.16 µg/mL and the “Mean vitreous concentration of ciprofloxacin” value ([2]; normal eyes) was 0.08 µg/mL.
